Reference: patent US20260262643A1, “HERBICIDAL BENZOXAZINES” (FMC CORPORATION, priority 2022, published 2026)

Experiments:
oat, wild [1] = test: Test C postemergence; assay type: in vivo, Avena fatua; details: 10 days, 0 to 100 scale (0 no effect, 100 complete control)
Outline: (§1)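 Seeds in loam–sand blend received preemergence directed soil spray of test chemicals in non-phytotoxic solvent with surfactant; postemergence treatment was applied at one- to two-leaf stage (2–10 cm). After 10 days in greenhouse, injury rated visually versus untreated controls, 0 (no effect) to 100 (complete control).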

kochia [2] = test: Test C preemergence; assay type: in vivo, Bassia scoparia
Outline: as §1

pigweed, palmer [3] = test: Test C postemergence; assay type: in vivo, Amaranthus palmeri; details: 10 days, 0 to 100 scale (0 no effect, 100 complete control)
Outline: as §1

galium = test: Test C postemergence; assay type: in vivo, Galium aparine; details: 10 days, 0 to 100 scale (0 no effect, 100 complete control)
Outline: as §1

blackgrass [4] = test: Test C postemergence; assay type: in vivo, Alopecurus myosuroides; details: 10 days, 0 to 100 scale (0 no effect, 100 complete control)
Outline: as §1

corn [5] = test: Test C postemergence; assay type: in vivo, Zea mays; details: 10 days, 0 to 100 scale (0 no effect, 100 complete control)
Outline: as §1

green foxtail [6] = test: Test C preemergence; assay type: in vivo, Setaria viridis
Outline: as §1

ducksalad = test: Test D flooded paddy test; assay type: in vivo, Heteranthera limosa; details: 250 g ai/ha, applied to paddy water, visual rating after 13 to 14 days, scale 0 to 100 (0 no effect, 100 complete control)
Outline: (§2)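 Post-flood water application at the 2-leaf stage; 3 cm flood depth kept constant; visual control rating 0–100 after 13–14 days greenhouse growth.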

ragweed [7] = test: Test C postemergence; assay type: in vivo, Ambrosia artemisiifolia; details: 10 days, 0 to 100 scale (0 no effect, 100 complete control)
Outline: as §1

blackgrass [8] = test: Test C preemergence; assay type: in vivo, Alopecurus myosuroides
Outline: as §1

wheat [9] = test: Test C postemergence; assay type: in vivo, Triticum aestivum; details: 10 days, 0 to 100 scale (0 no effect, 100 complete control)
Outline: as §1

soybean [10] = test: Test C postemergence; assay type: in vivo, Glycine max; details: 10 days, 0 to 100 scale (0 no effect, 100 complete control)
Outline: as §1

oat, wild [11] = test: Test C preemergence; assay type: in vivo, Avena fatua
Outline: as §1

green foxtail [12] = test: Test C postemergence; assay type: in vivo, Setaria viridis; details: 10 days, 0 to 100 scale (0 no effect, 100 complete control)
Outline: as §1

barnyardgrass [13] = test: Test D flooded paddy test; assay type: in vivo, Echinochloa crus-galli; details: 250 g ai/ha, applied to paddy water, visual rating after 13 to 14 days, scale 0 to 100 (0 no effect, 100 complete control)
Outline: as §2

wheat [14] = test: Test C preemergence; assay type: in vivo, Triticum aestivum
Outline: as §1

corn [15] = test: Test C preemergence; assay type: in vivo, Zea mays
Outline: as §1

ragweed [16] = test: Test C preemergence; assay type: in vivo, Ambrosia artemisiifolia
Outline: as §1

sedge, umbrella = test: Test D flooded paddy test; assay type: in vivo, Cyperus difformis; details: 250 g ai/ha, applied to paddy water, visual rating after 13 to 14 days, scale 0 to 100 (0 no effect, 100 complete control)
Outline: as §2

rice = test: Test D flooded paddy test; assay type: in vivo, Oryza sativa; details: 250 g ai/ha, applied to paddy water, visual rating after 13 to 14 days, scale 0 to 100 (0 no effect, 100 complete control)
Outline: as §2

barnyardgrass [17] = test: Test C preemergence; assay type: in vivo, Echinochloa crusgalli
Outline: as §1

soybean [18] = test: Test C preemergence; assay type: in vivo, Glycine max
Outline: as §1

kochia [19] = test: Test C postemergence; assay type: in vivo, Bassia scoparia; details: 10 days, 0 to 100 scale (0 no effect, 100 complete control)
Outline: as §1

ryegrass, Italian [20] = test: Test C preemergence; assay type: in vivo, Lolium multiflorum
Outline: as §1

horseweed = test: Test C postemergence; assay type: in vivo, Erigeron canadensis; details: 10 days, 0 to 100 scale (0 no effect, 100 complete control)
Outline: as §1

barnyardgrass [21] = test: Test C postemergence; assay type: in vivo, Echinochloa crusgalli; details: 10 days, 0 to 100 scale (0 no effect, 100 complete control)
Outline: as §1

pigweed, palmer [22] = test: Test C preemergence; assay type: in vivo, Amaranthus palmeri
Outline: as §1

ryegrass, Italian [23] = test: Test C postemergence; assay type: in vivo, Lolium multiflorum; details: 10 days, 0 to 100 scale (0 no effect, 100 complete control)
Outline: as §1

[24] = 500 g ai/ha, preemergence, 0 to 100 scale (0 no effect, 100 complete control)
[25] = Preemergence, 125 g ai/ha, 0 to 100 scale, 0 no effect, 100 complete control

## Cc1cccc2c1OC(C(F)(F)F)CN2C(=O)c1cccc(-n2cnc(C(C)(C)C)n2)c1 (stereo not shown) [Compound 347]
oat, wild [1]; 500 g ai/ha, postemergence
  Plant response rating, Oat, Wild: 10
oat, wild [1]; Postemergence, 125 g ai/ha
  Plant response rating, Oat, Wild: 10
Kochia [2]; [24]
  Kochia plant response rating: 60
Kochia [2]; [25]
  Plant response rating, Kochia: 50
pigweed, palmer [3]; 500 g ai/ha, postemergence
  Plant response rating, Pigweed, Palmer: 80
pigweed, palmer [3]; Postemergence, 125 g ai/ha
  Plant response rating, Pigweed, Palmer: 80
galium; 500 g ai/ha, postemergence
  Plant response rating, Galium: 80
galium; Postemergence, 125 g ai/ha
  Plant response rating, Galium: 90
Blackgrass [4]; 500 g ai/ha, postemergence
  Plant response rating, Blackgrass: 60
Blackgrass [4]; Postemergence, 125 g ai/ha
  Plant response rating, Blackgrass: 10
Corn [5]; 500 g ai/ha, postemergence
  Plant response rating, Corn: 10
Corn [5]; Postemergence, 125 g ai/ha
  Plant response rating, Corn: 10
Green foxtail [6]; [24]
  Foxtail, Green plant response rating: 100
Green foxtail [6]; [25]
  Plant response rating, Foxtail, Green: 90
ducksalad
  Plant response rating, Ducksalad (Flood): 0
Ragweed [7]; 500 g ai/ha, postemergence
  Plant response rating, Ragweed: 50
Ragweed [7]; Postemergence, 125 g ai/ha
  Plant response rating, Ragweed: 20
Blackgrass [8]; [24]
  Blackgrass plant response rating: 30
Blackgrass [8]; [25]
  Plant response rating, Blackgrass: 10
Wheat [9]; 500 g ai/ha, postemergence
  Plant response rating, Wheat: 10
Wheat [9]; Postemergence, 125 g ai/ha
  Plant response rating, Wheat: 10
Soybean [10]; 500 g ai/ha, postemergence
  Plant response rating, Soybean: 100
Soybean [10]; Postemergence, 125 g ai/ha
  Plant response rating, Soybean: 100
oat, wild [11]; [24]
  Oat, Wild plant response rating: 70
oat, wild [11]; [25]
  Plant response rating, Oat, Wild: 60
Green foxtail [12]; 500 g ai/ha, postemergence
  Plant response rating, Foxtail, Green: 60
Green foxtail [12]; Postemergence, 125 g ai/ha
  Plant response rating, Foxtail, Green: 20
Barnyardgrass [13]
  Plant response rating, Barnyardgrass (Flood): 0
Wheat [14]; [24]
  Wheat plant response rating: 40
Wheat [14]; [25]
  Plant response rating, Wheat: 20
Corn [15]; [24]
  Corn plant response rating: 10
Corn [15]; [25]
  Plant response rating, Corn: 0
Ragweed [16]; [24]
  Ragweed plant response rating: 30
Ragweed [16]; [25]
  Plant response rating, Ragweed: 0
sedge, umbrella
  Plant response rating, Sedge, Umbrella (Flood): 0
rice
  Plant response rating, Rice (Flood): 0
Barnyardgrass [17]; [24]
  Barnyardgrass plant response rating: 100
Barnyardgrass [17]; [25]
  Plant response rating, Barnyardgrass: 20
Soybean [18]; [24]
  Soybean plant response rating: 30
Soybean [18]; [25]
  Plant response rating, Soybean: 30
Kochia [19]; 500 g ai/ha, postemergence
  Plant response rating, Kochia: 70
Kochia [19]; Postemergence, 125 g ai/ha
  Plant response rating, Kochia: 50
ryegrass, Italian [20]; [24]
  Ryegrass, Italian plant response rating: 100
ryegrass, Italian [20]; [25]
  Plant response rating, Ryegrass, Italian: 100
horseweed; 500 g ai/ha, postemergence
  Plant response rating, Horseweed: 20
horseweed; Postemergence, 125 g ai/ha
  Plant response rating, Horseweed: 0
Barnyardgrass [21]; 500 g ai/ha, postemergence
  Plant response rating, Barnyardgrass: 20
Barnyardgrass [21]; Postemergence, 125 g ai/ha
  Plant response rating, Barnyardgrass: 10
pigweed, palmer [22]; [24]
  Pigweed, Palmer plant response rating: 70
pigweed, palmer [22]; [25]
  Plant response rating, Pigweed, Palmer: 80
ryegrass, Italian [23]; 500 g ai/ha, postemergence
  Plant response rating, Ryegrass, Italian: 30
ryegrass, Italian [23]; Postemergence, 125 g ai/ha
  Plant response rating, Ryegrass, Italian: 20
